Measured values: the supplement of paper PMC10307832

How the values were obtained:
Experiment in all cases: relative viability (nuclei count vs DMSO), 5 days (fraction); higher = more cells survive
BAM7 + Palbociclib = compound: CCOC1=CC=CC=C1N=NC2=C(NN(C2=O)C3=NC(=CS3)C4=CC=CC=C4)C [BAM7] + CC(=O)c1c(C)c2cnc(Nc3ccc(N4CCNCC4)cn3)nc2n(C2CCCC2)c1=O [Palbociclib] (partner 0.5 µM)
Outline: (§1)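 For relative viability, nuclei counts in treated wells were divided by those in vehicle wells. Lung cancer cell lines had been pin-tool dosed in 1536-well plates the day after seeding and cultured for 5 days, then fixed and stained in one step (final 0.05% Triton X-100, 1% formaldehyde, 1 ug/ml Hoechst) and imaged at 4×. Doses were one drug alone or a fixed anchor-drug dose plus five library-drug doses (not always all listed) in √10 steps, and values are duplicate-plate medians.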

BAM7 + Pemetrexed = compound: CCOC1=CC=CC=C1N=NC2=C(NN(C2=O)C3=NC(=CS3)C4=CC=CC=C4)C [BAM7] + Nc1nc2[nH]cc(CCc3ccc(C(=O)N[C@@H](CCC(=O)O)C(=O)O)cc3)c2c(=O)[nH]1 [Pemetrexed] (partner 0.2 µM)
Outline: as §1

[1] = compound: CCn1c(-c2nonc2N)nc2c(C#CC(C)(C)O)ncc(OC[C@H]3CCCNC3)c21 + Nc1ncn([C@H]2C[C@H](O)[C@@H](CO)O2)c(=O)n1 [Decitabine] (partner 2 µM)
Outline: as §1

[2] = compound: CCn1c(-c2nonc2N)nc2c(C#CC(C)(C)O)ncc(OC[C@H]3CCCNC3)c21 + Cc1nc(NC(=O)N2CCC[C@H]2C(N)=O)sc1-c1ccnc(C(C)(C)C(F)(F)F)c1 [Alpelisib] (partner 2 µM)
Outline: as §1

Cell Line | relative viability (BAM7 + Palbociclib; first compound 0.5 µM) | relative viability (BAM7 + Palbociclib; first compound 5 µM) | relative viability (BAM7 + Palbociclib; first compound 15.81 µM) | relative viability (BAM7 + Palbociclib; first compound 50 µM) | relative viability (BAM7 + Pemetrexed; first compound 0.5 µM) | relative viability (BAM7 + Pemetrexed; first compound 5 µM) | relative viability (BAM7 + Pemetrexed; first compound 15.81 µM) | relative viability (BAM7 + Pemetrexed; first compound 50 µM) | relative viability ([1]; first compound 0.01 µM) | relative viability ([1]; first compound 0.03162 µM) | relative viability ([1]; first compound 0.1 µM) | relative viability ([1]; first compound 0.3162 µM) | relative viability ([1]; first compound 1 µM) | relative viability ([2]; first compound 0.01 µM) | relative viability ([2]; first compound 0.03162 µM) | relative viability ([2]; first compound 0.1 µM) | relative viability ([2]; first compound 0.3162 µM) | relative viability ([2]; first compound 1 µM)
NCI-H1975 | 0.565 | 0.555 | 0.519 | 0.652 | 0.292 | 0.276 | 0.269 | 0.288 | 0.428 | 0.382 | 0.378 | 0.409 | 0.359 | 0.716 | 0.656 | 0.623 | 0.543 | 0.583
CAL-12T | 0.593 | 0.372 | 0.419 | 0.513 | 1.31 | 1.27 | 0.987 | 1.31 | – | – | – | – | – | 1.03 | 1.33 | 1.21 | 1.24 | 0.939
HCC-44 | 0.956 | 0.974 | 0.925 | 0.981 | 0.648 | 0.642 | 0.635 | 0.63 | 0.957 | 0.888 | 0.902 | 0.968 | 0.985 | 0.732 | 0.818 | 0.794 | 0.761 | 0.786
EKVX | 0.444 | 0.39 | 0.337 | 0.429 | 0.425 | 0.409 | 0.349 | 0.377 | 0.325 | 0.37 | 0.369 | 0.347 | 0.337 | 0.937 | 0.943 | 0.862 | 0.842 | 0.919
NCI-H1651 | 0.528 | 0.52 | 0.512 | 0.508 | 0.548 | 0.586 | 0.639 | 0.569 | 0.582 | 0.608 | 0.652 | 0.597 | 0.663 | 1.01 | 0.879 | 0.937 | 0.917 | 1.19
NCI-H1944 | 0.365 | 0.366 | 0.281 | 0.37 | 0.581 | 0.541 | 0.512 | 0.512 | 0.443 | 0.415 | 0.45 | 0.446 | 0.448 | 0.886 | 0.759 | 0.844 | 0.804 | 0.777
NCI-H1703 | – | – | – | – | – | – | – | – | – | – | – | – | – | 0.333 | 0.374 | 0.392 | 0.28 | 0.299
Calu-6 | – | – | – | – | – | – | – | – | – | – | – | – | – | 0.92 | 1.08 | 1.02 | 0.963 | 1.14
EBC-1 | – | – | – | – | – | – | – | – | – | – | – | – | – | 0.822 | 0.973 | 0.763 | 0.62 | 0.628
SW 1573 | 0.433 | 0.396 | 0.356 | 0.391 | 0.843 | 0.822 | 0.801 | 0.823 | 0.462 | 0.388 | 0.448 | 0.42 | 0.337 | 0.717 | 0.783 | 0.656 | 0.73 | 0.734
A-427 | 0.507 | 0.49 | 0.498 | 0.532 | 1.02 | 0.935 | 0.93 | 1.04 | 0.558 | 0.61 | 0.589 | 0.54 | 0.562 | 0.998 | 1.11 | 1.05 | 0.997 | 1.14
NCI-H2347 | 0.426 | 0.457 | 0.425 | 0.367 | 0.426 | 0.424 | 0.422 | 0.415 | 0.603 | 0.575 | 0.616 | 0.577 | 0.605 | 1.09 | 0.97 | 0.992 | 0.972 | 1.17
NCI-H1355 | 0.415 | 0.385 | 0.377 | 0.416 | 1.08 | 0.978 | 1 | 1.01 | 0.339 | 0.346 | 0.385 | 0.324 | 0.355 | 0.863 | 0.732 | 0.786 | 0.825 | 0.82
NCI-H358 | – | 0.129 | 0.141 | 0.137 | – | 0.177 | 0.166 | 0.159 | 0.234 | 0.191 | 0.221 | 0.207 | 0.201 | 0.896 | 0.784 | 0.787 | 0.687 | 0.701
PC-3 [JPC-3] | 0.49 | 0.533 | 0.462 | 0.531 | 1.17 | 1.13 | 1.05 | 1.08 | 0.832 | – | 0.836 | 0.769 | 0.78 | 1.16 | 1.02 | 0.977 | 1.02 | 1.02
NCI-H2228 | 0.853 | 0.966 | 1.19 | 1.07 | 0.355 | 0.341 | 0.316 | 0.351 | – | – | – | – | – | 0.68 | 0.854 | 0.622 | 0.651 | 0.569
HOP-62 | 0.45 | 0.385 | 0.454 | 0.491 | 0.269 | 0.356 | 0.328 | 0.371 | 0.18 | 0.22 | 0.246 | 0.193 | 0.226 | 0.966 | 1.12 | 0.819 | 0.951 | 1.13
HARA | 0.253 | 0.224 | 0.229 | 0.243 | 0.228 | 0.244 | 0.222 | 0.292 | 0.508 | 0.486 | 0.656 | 0.551 | 0.498 | 0.843 | 0.884 | 0.824 | 0.781 | 0.861
NCI-H838 | 0.24 | 0.243 | 0.222 | 0.218 | 0.293 | 0.259 | 0.249 | 0.231 | 0.452 | 0.416 | 0.482 | 0.44 | 0.497 | 1.05 | 1.02 | 1.03 | 0.979 | 0.989
NCI-H1755 | 0.462 | 0.466 | 0.439 | 0.436 | 0.401 | 0.417 | 0.423 | 0.408 | 0.727 | 0.753 | 0.673 | 0.669 | 0.722 | 0.943 | 0.944 | 0.896 | 0.916 | 0.981
